Source: article PMC11923837, “Proline-Modified (RW)n Peptides: Enhancing the Antimicrobial Efficacy and Selectivity against Multidrug-Resistant Pathogens” (ACS Omega, 2025)
Where two headings read alike, the source gives them in different places. No end group written: not given here.

Key:
[1] = test system: Escherichia coli (E. coli) ATCC 25922; experiment: microbe, parasite or virus in culture; conditions: for MIC: Escherichia coli, ATCC25922, 18 h, read-out: MIC against E. coli; for MIC, Ec (Table 1S): supplement Table 1S, unit not given (main-text tables: μg/mL), capital letter component 95 mg
Procedure: (§1) Antimicrobial activity was evaluated using the Community for Open Antimicrobial Drug Discovery (CO-ADD) screening platform. Minimum inhibitory concentrations (MICs) were determined against the following five bacterial strains: Escherichia coli (E. coli) ATCC 25922, Klebsiella pneumoniae ATCC 700603, Acinetobacter baumannii ATCC 19606, Pseudomonas aeruginosa ATCC 27853, and Staphylococcus aureus ATCC 43300.
(§2) Bacteria were cultured in cation-adjusted Mueller–Hinton broth (CAMHB) at 37 °C overnight. Cultures were diluted 40-fold in fresh broth and incubated at 37 °C for 1.5–3 h. Mid-log phase cultures were then diluted and added to the compound-containing plates, giving a final cell density of 5 × 10^5 CFU/mL in a total volume of 50 μL. Plates were incubated at 37 °C for 18 h without shaking.
(§3) Bacterial growth inhibition was determined by measuring the absorbance at 600 nm (OD600) using a Tecan M1000 Pro monochromator plate reader. The percentage of growth inhibition was calculated using negative (media only) and positive (bacteria without inhibitors) controls. Significance was determined by modified Z scores calculated using the median and MAD of the samples on the same plate. Samples with inhibition values above 80% and Z scores above 2.5 for either replicate were classified as active.
(§4) The fractional inhibitory concentration (FIC) index was calculated to determine synergy, additivity, or antagonism.
(§5) Colistin and VAN were used as positive bacterial inhibitor standards for Gram-negative and Gram-positive bacteria, respectively. The quality control (QC) of the assays was determined by the antimicrobial controls and the Z’ factor (using positive and negative controls).
(§6) Percentage growth inhibition was calculated using negative (media only) and positive (bacteria without inhibitors) controls. Modified Z scores were used to determine the significance of the inhibition values. Samples with inhibition values of above 80% and Z scores of above 2.5 for either replicate were classified as active. Data are presented as the mean ± standard deviation from at least three independent experiments.

[2] = test system: Acinetobacter baumannii ATCC 19606; experiment: microbe, parasite or virus in culture; conditions: for MIC: Acinetobacter baumannii, ATCC19606, 18 h, read-out: MIC against Ab; for MIC, Ab (Table 1S): supplement Table 1S, unit not given (main-text tables: μg/mL), capital letter component 95 mg
Procedure: as §1, §2, §3, §4, §5, §6

[3] = test system: Staphylococcus aureus ATCC 43300 (MRSA); experiment: microbe, parasite or virus in culture; conditions: for MIC: Staphylococcus aureus, read-out: MIC against MRSA; for MIC, Sa (Table 1S): supplement Table 1S, unit not given (main-text tables: μg/mL), capital letter component 95 mg
Procedure: as §1, §2, §3, §4, §5, §6

[4] = test system: Pseudomonas aeruginosa ATCC 27853; experiment: microbe, parasite or virus in culture; conditions: for MIC: Pseudomonas aeruginosa, ATCC27853, 18 h, read-out: MIC against Pa; for MIC, Pa (Table 1S): supplement Table 1S, unit not given (main-text tables: μg/mL), capital letter component 95 mg
Procedure: as §1, §2, §3, §4, §5, §6

[5] = test system: human red blood cells (RBCs); experiment: Hemolysis assay; assay type: cell-based
Procedure: (§7) Cytotoxicity was evaluated using human embryonic kidney (HEK293) and human red blood cells (RBCs). HEK293 cells were cultured in DMEM supplemented with 10% FBS. Cells were seeded in 384-well plates and incubated with peptides for 24 h. Cell viability was assessed using the resazurin reduction assay. Hemolysis assays were performed using fresh human RBCs incubated with peptides for 1 h at 37 °C.

[6] = test system: human embryonic kidney (HEK293) cells; experiment: Cytotoxicity, resazurin reduction assay; assay type: cell-based
Procedure: as §7

[7] = test system: Gram-positive and Gram-negative bacteria; experiment: Structure-activity summary: antimicrobial activity (Table 5); assay type: cell-based; conditions: summary in words
[8] = test system: Klebsiella pneumoniae ATCC 700603; experiment: microbe, parasite or virus in culture; conditions: for MIC against Kp: ATCC 700603, 18 h; for MIC, Kp (Table 1S): supplement Table 1S, unit not given (main-text tables: μg/mL), capital letter component 95 mg, minor letter component 5 mg
Procedure: as §1, §2, §3, §4, §5, §6

human cells = assay type: cell-based
[9] = summary in words, Table 5; earlier biophysical studies ref 20; cited from earlier work
From the text: Table 5 Structure–Activity Relationships of (RW)n Peptides ^a | column: Thermal stability

[10] = S. aureus ATCC 43300, CAMHB, 5 × 10^5 CFU/mL, 37 °C, 18 h, OD600, mixtures: capital letter component 95 mg, minor letter component 5 mg

| Compound | MIC, Ec (Table 1S) ([1]; minor letter component 5 mg) | MIC, Ab (Table 1S) ([2]; minor letter component 5 mg) | MIC, Sa (Table 1S) ([3]; minor letter component 5 mg) | MIC, Pa (Table 1S) ([4]; minor letter component 5 mg) | MIC, Hm (Table 1S) [5] | MIC, Hk (Table 1S) [6] [µg/mL] | Antimicrobial activity [7] | MIC against E. coli ([1]; ATCC 25922, 18 h) [µg/mL] | MIC against Ab ([2]; ATCC 19606, 18 h) [µg/mL] | MIC against MRSA ([3]; ATCC 43300, 18 h) [µg/mL] | MIC against Pa ([4]; ATCC 27853, 18 h) [µg/mL] | MIC against Kp [8] [µg/mL] | MIC, Kp (Table 1S) [8] | Toxicity (human cells) | Thermal stability [9] | RBC hemolysis MIC [5] [µg/mL] | HEK293 cells MIC ([6]; 24 h) [µg/mL] | also measured |
| --- | --- | --- | --- | --- | --- | --- | --- | --- | --- | --- | --- | --- | --- | --- | --- | --- | --- | --- |
| CC1(C)S[C@@H]2[C@H](NC(=O)[C@H](N)c3ccccc3)C(=O)N2[C@H]1C(=O)O [AMP, ampicillin, reference compound] | 8 | > 32 | 32 | > 32 | > 32 | > 32 | – | – | – | – | – | – | – | – | – | – | – | MIC [1]: 8 µg/mL; MIC [2]: > 32 µg/mL; MIC ([3]; 18 h): 32 µg/mL; MIC [4]: > 32 µg/mL |
| CC[C@H](C)[C@H](N)C(=O)N[C@@H](CC(C)C)C(=O)N1CCC[C@H]1C(=O)N[C@@H](Cc1c[nH]c2ccccc12)C(=O)N[C@@H](CCCCN)C(=O)N[C@@H](Cc1c[nH]c2ccccc12)C(=O)N1CCC[C@H]1C(=O)N[C@@H](Cc1c[nH]c2ccccc12)C(=O)N[C@@H](Cc1c[nH]c2ccccc12)C(=O)N1CCC[C@H]1C(=O)N[C@@H](Cc1c[nH]c2ccccc12)C(=O)N[C@@H](CCCN=C(N)N)C(=O)N[C@@H](CCCN=C(N)N)C(N)=O [Indolicidin, reference compound] | – | – | – | – | – | – | – | – | – | – | – | – | – | – | – | – | – | RBC hemolysis MIC ([5]; fresh human RBCs, 1 h, 37 °C): >32 µg/mL |
| N=C(N)NCCC[C@H](NC(=O)[C@H](Cc1c[nH]c2ccccc12)NC(=O)[C@H](CCCNC(=N)N)NC(=O)[C@H](Cc1c[nH]c2ccccc12)NC(=O)[C@H](CCCNC(=N)N)NC(=O)[C@H](Cc1c[nH]c2ccccc12)NC(=O)[C@H](CCCNC(=N)N)NC(=O)[C@H](Cc1c[nH]c2ccccc12)NC(=O)[C@H](CCCNC(=N)N)NC(=O)[C@H](Cc1c[nH]c2ccccc12)NC(=O)[C@@H](N)CCCNC(=N)N)C(=O)N[C@@H](Cc1c[nH]c2ccccc12)C(N)=O [RW6] | <= 0.25 | > 32 | <= 0.25 | > 32 | <= 0.25 | > 32 | High | ≤0.25 | >32 | ≤0.25 | >32 | >32 | > 32 | Moderate | High | ≤0.25 | >32 | – |
| CN[C@H](CC(C)C)C(=O)N[C@H]1C(=O)N[C@@H](CC(N)=O)C(=O)N[C@H]2C(=O)N[C@H]3C(=O)N[C@H](C(=O)N[C@H](C(=O)O)c4cc(O)cc(O)c4-c4cc3ccc4O)[C@H](O)c3ccc(c(Cl)c3)Oc3cc2cc(c3O[C@@H]2O[C@H](CO)[C@@H](O)[C@H](O)[C@H]2O[C@H]2C[C@](C)(N)[C@H](O)[C@H](C)O2)Oc2ccc(cc2Cl)[C@H]1O [VAN, vancomycin, reference compound] | > 32 | > 32 | <= 0.25 | > 32 | – | – | – | – | – | – | – | – | > 32 | – | – | – | – | MIC [1]: > 32 µg/mL; MIC [2]: > 32 µg/mL; MIC ([3]; 18 h): ≤ 0.25 µg/mL; MIC [4]: > 32 µg/mL; MIC ([8]; Klebsiella pneumoniae, ATCC700603, 18 h, read-out: MIC against Kp): > 32 µg/mL; MIC, Hm (Table 1S) ([5]; supplement Table 1S, Hm = human RBC hemolysis, 1 h, 37 °C, unit not given (main-text tables: μg/mL), capital 95 mg, minor letter 5 mg, in µg/mL): 28.69; HEK293 cytotoxic concentration ([6]; supplement Table 1S, Hk = HEK293 cytotoxicity, 24 h, resazurin, unit not given (main-text tables: μg/mL), capital 95 mg, minor letter 5 mg): > 32 µg/mL |
| RWRWPRWRWPRWRW-NH2 [RW6-2P] | 16 | 2 | <= 0.25 | <= 0.25 | > 32 | > 32 | – | 16 | 2 | ≤0.25 | ≤0.25 | >32 | > 32 | – | – | >32 | >32 | MIC against MRSA [3, 10]: ≤ 0.25 µg/mL |
| RWRWRWRW-NH2 [RW4] | > 32 | > 32 | 8 | > 32 | > 32 | > 32 | Moderate | – | >32 | 8 | >32 | >32 | > 32 | Low | Low | >32 | >32 | – |
| RWRWRWRWRWRWRWRW-NH2 [RW8] | 32 | 32 | 2 | > 32 | 0.4523 | > 32 | High (Gram+), Moderate (Gram−) | 32 | 32 | 2 | >32 | >32 | > 32 | Moderate | High | 0.4523 | >32 | – |
| penicillin [reference compound] | 32 | > 32 | 8 | > 32 | > 32 | > 32 | – | – | – | – | – | – | – | – | – | – | – | MIC against E. coli ([1]; E. coli ATCC 25922, CAMHB, 5 × 10^5 CFU/mL, 37 °C, 18 h, OD600, mixtures: capital letter component 95 mg, minor letter component 5 mg): 32 µg/mL; MIC against Ab ([2]; A. baumannii ATCC 19606, CAMHB, 5 × 10^5 CFU/mL, 37 °C, 18 h, OD600, mixtures: capital letter component 95 mg, minor letter component 5 mg): >32 µg/mL; MIC against MRSA [3, 10]: 8 µg/mL; MIC against Pa ([4]; P. aeruginosa ATCC 27853, CAMHB, 5 × 10^5 CFU/mL, 37 °C, 18 h, OD600, mixtures: capital letter component 95 mg, minor letter component 5 mg): >32 µg/mL |
